Laboratory results as given in patent publication US11401264B2, “Heterocyclic compound” (Orizuru Therapeutics, Inc., priority 2018, dated 2022).

Test system: cardiomyocytes (embryoid bodies) from double knock-in human iPS cell lines (mCherry at TNNI3 locus)
Assay: Experimental Example 3: mCherry expression in TNNI1+ cells by flow cytometry, Example 8 with Compound A
Type: cell-based
Details: DMSO control 10.2
Procedure: For detection of cardiomyocyte maturation, double knock-in human iPS cell lines, in which reporter protein sequences, EmGFP (Sequence Number 1) and mCherry (Sequence Number 2) were inserted into gene loci for TNNI1 and TNNI3, respectively, were prepared (the human iPS cells were prepared from episomal vector (loaded gene; OCT3/4, KLF4, SOX2, L-MYC, LIN28, mouse p53DD) using PBMC (LP_167, Sample ID: 20130318) purchased from CTL (reference literature; Okita K, et al. Stem Cells. 2012 Nov. 29. doi: 10.1002/stem.1293)).
The maintenance culture of the above-mentioned reporter iPS cell lines was carried out by a conventional method (Okita K, et al. Stem Cells. 2012 Nov. 29. doi: 10.1002/stem.1293).
For differentiation induction into cardiomyocytes, the reporter iPS cell lines were treated with 0.5×TrypLE select (Life Technologies, diluted in 1/2 with 0.5 mM EDTA/PBS) for 4 to 5 minutes, and the cells were exfoliated using a cell scraper (IWAKI), and then dissociated into the single cell by pipetting. […]

O=C1c2ccc(N3CCOCC3)cc2CN1c1ccc2[nH]c(-c3ccc(Br)cc3)nc2c1 [Example 8, 2-(2-(4-bromophenyl)-1H-benzimidazol-5-yl)-5-(morpholin-4-yl)isoindolin-1-one]
mCherry+ (%) (Example 8 3 μM 8-9th days, then compound A 40 nM 10-15th days): 64.3% | mCherry+ (%) (Example 8 3 μM 8-9 days, then Example 8 3 μM + Compound A 40 nM 10-15th days): 85.1%
